Assay results reported in patent US20100068766A1, “COMPOSITION FOR CLEAVING AND/OR CONNECTING SINGLE STRAND DNA” (WASEDA UNIVERSITY, priority 2007, published 2010).

Columns and labels:
Ev1 protein [1] = target: T1, Ev1 protein (Homo sapiens, UniProt Q9UI08); experiment: Gel shift method, single-stranded DNA binding activity of the Ev1 protein in the presence of compounds; conditions: compound 1, 5, 10 and 20 μM; 0.3 μM Ev1 protein; 20 μM φ×174 single-stranded DNA; 37° C., 15 minutes
T1 construct: in accordance with the protocols used in purification of the entire-length Ev1 protein; 6xHis (N, cleaved yes); made in house; host or cells: E. coli BL21 (DE3) codon plus-RP, pET15b vector
T1 sequence (Q9UI08 1-418 isoform Q9UI08-2): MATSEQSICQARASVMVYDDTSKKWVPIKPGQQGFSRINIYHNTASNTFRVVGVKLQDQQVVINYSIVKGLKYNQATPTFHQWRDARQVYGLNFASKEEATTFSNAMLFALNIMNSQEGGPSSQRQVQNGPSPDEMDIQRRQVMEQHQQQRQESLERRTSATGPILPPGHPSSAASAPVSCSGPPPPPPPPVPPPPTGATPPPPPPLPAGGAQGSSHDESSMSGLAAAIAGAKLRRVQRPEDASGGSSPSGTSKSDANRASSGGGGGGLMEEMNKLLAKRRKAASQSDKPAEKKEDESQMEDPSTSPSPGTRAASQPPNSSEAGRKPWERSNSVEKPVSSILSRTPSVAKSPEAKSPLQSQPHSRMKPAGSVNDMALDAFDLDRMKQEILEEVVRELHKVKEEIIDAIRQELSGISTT
Protocol: Moreover, in a gel shift method involving single-stranded DNA binding activity (FIGS. 14b, 15b, 16b, 17b, and 18b), each compound in final concentrations of 1, 5, 10, and 20 μM, a φ×174 single-stranded DNA in a final concentration of 20 μM, and an Ev1 protein in a final concentration of 0.3 μM were added to 20 μl of a reaction solution (20 mM HEPES, 1 mM DTT, 100 μg/ml BSA, and 1 mM MgCl2). The obtained mixture was reacted at 37° C. for 15 minutes. Thereafter, the reaction product was electrophoresed on a 0.8% HGT agarose gel, and DNA was then detected with ethidium bromide.

Ev1 protein [2] = target: T1, Ev1 protein; experiment: Influence of low molecular weight compounds on single-stranded DNA catenation activity of the Ev1 protein; assay type: biochemical; conditions: compound 1, 5, 10 and 20 μM; 4 μM Ev1 protein; 20 μM φ×174 single-stranded DNA; 37° C., 1 hour
Protocol: With regard to the influence of each compound on the catenation activity of the Ev1 protein (FIGS. 14a, 15a, 16, 17a, and 18a), each compound in final concentrations of 1, 5, 10, and 20 μM, a φ×174 single-stranded DNA in a final concentration of 20 μM, and an Ev1 protein in a final concentration of 4 μM were added to 10 μl of a reaction solution (20 mM HEPES, 1 mM DTT, 100 μg/ml BSA, and 1 mM MgCl2). The obtained mixture was reacted at 37° C. for 1 hour. After completion of the reaction, 2 μl of a PK solution (0.2% SDS and 1.3 mg/ml proteinase K) was added to the reaction solution, and the obtained mixture was then reacted at 37° C. for 15 minutes. Thereafter, the reaction product was electrophoresed on a 0.8% HGT agarose gel, and DNA was then detected with SYBR Gold.

Molecule | influence on activity of the Ev1 protein to bind to single-stranded DNA (gel shift) (Ev1 protein [1]) | effect on single-stranded DNA catenation activity of the Ev1 protein (Ev1 protein [2])
Nc1ccc2c(=S)c3ccccc3[nH]c2c1 [3-ATA, 3-amino-9-thio(10H)-acridone] | does not change the single-stranded DNA binding activity of the Ev1 protein | inhibits the single-stranded DNA catenation activity of the Ev1 protein
O=S(=O)(O)c1cc(N=C=S)ccc1C=Cc1ccc(N=C=S)cc1S(=O)(=O)O [DIDS] | inhibits the single-stranded DNA binding activity of the Ev1 protein | inhibits the single-stranded DNA catenation activity of the Ev1 protein
CC[C@@]1(O)C[C@H](O[C@H]2C[C@H](N(C)C)[C@H](O[C@H]3C[C@H](O)[C@H](O[C@H]4CCC(=O)[C@H](C)O4)[C@H](C)O3)[C@H](C)O2)c2c(cc3c(c2O)C(=O)c2c(O)cccc2C3=O)[C@H]1C(=O)OC [aclarubicin] | does not change the activity of the Ev1 protein to bind to circular single-stranded DNA | inhibits the activity of an Ev1 protein to catenate single-stranded DNA molecules
Cc1cc(N)c2ccccc2[n+]1CCCCCCCCCC[n+]1c(C)cc(N)c2ccccc21 [dequalinium, dequalinium chloride] | changes the binding manner of the Ev1 protein that binds to a single-stranded DNA | inhibits the single-stranded DNA catenation activity of the Ev1 protein
β-rubromycin | changes the binding manner of the Ev1 protein that binds to a single-stranded DNA | inhibits the single-stranded DNA catenation activity of the Ev1 protein
